Assay [1] concerns Mus musculus. The assay can be described thus: Inhibition of oxotremorine-induced tremor in NMRI mouse at 0.13 to 16 mg/kg, ip administered 1 hr prior to oxotremorine challenge. In kind it is functional, organism-based.
Assay [2] concerns Mus musculus. The assay is described as follows: Inhibition of oxotremorine-induced tremor in ip dosed NMRI mouse administered 1 hr prior to oxotremorine challenge. Format: functional.

The structures appear in SMILES notation. The source made the active and inactive calls. The rule behind the calls is not given here. Square brackets hold non-standard residues; d marks the D form. Peptide text beside a SMILES is read from it. * marks the point of attachment. pGlu = O=C1CC[C@@H](C(=O)O)N1; NHtBu = CC(C)(C)N*; NHiPr = CC(C)N*; NHPr = CCCN*; For = O=C*

For `C#CCNC(=O)CNC(=O)[C@H](CC(C)C)NC(=O)[C@@H]1CCC(=O)N1`, in the assay with Mus musculus [1], the inhibition entry was “inactive”.
Take `CC(C)C[C@@H]1NC(=O)[C@@H]2CCCN2C1=O`: the inhibition result with Mus musculus [1] was “inactive”.
`CC(C)C[C@H](NC(=O)C1CCCC1)C(=O)NCC(N)=O`: the inhibition entry in the assay on Mus musculus [1] was “inactive”.
Take `CCN(C)C(=O)CNC(=O)[C@H](CC(C)C)NC(=O)[C@@H]1CCC(=O)N1`: in the assay with Mus musculus [1], the inhibition entry was “inactive”.
As to `CCNC(=O)CNC(=O)[C@H](CC(C)C)NC(=O)C1CCCC1`, the inhibition result in the assay with Mus musculus [1] is “inactive”.
As for `CC(C)C[C@H](NC(=O)[C@@H]1CCCN1C=O)C(=O)NCC(N)=O` (For-Pro-Leu-Gly-NH2), the inhibition result in the assay on Mus musculus [1] was “inactive”.
`CCNC(=O)CNC(=O)[C@H](CC(C)C)NC(=O)[C@@H]1CCCN1C=O` (For-Pro-Leu-Gly-NHEt): the inhibition result in the assay with Mus musculus [1] is “inactive”.
The same measure, in the same setting: with `N=C(N)NCCC[C@H](NC(=O)[C@@H]1CCCN1)C(=O)NCC(N)=O` (H-Pro-Arg-Gly-NH2) the entry was “inactive”.
`CC(C)C[C@H](NC(=O)[C@@H]1CCCN1)C(=O)NCC(N)=O` (H-Pro-Leu-Gly-NH2) registered an Activity with Mus musculus [2] of 3.6 mg/kg.
Consider `NCCCC[C@H](NC(=O)[C@@H]1CCCN1)C(=O)NCC(N)=O` (H-Pro-Lys-Gly-NH2), for which, in the assay on Mus musculus [1], the inhibition entry was “inactive”.
`CCNC(=O)CNC(=O)[C@H](CC(C)C)NC(=O)[C@@H]1CCC(=O)N1` ([pGlu]-Leu-Gly-NHEt) came in with an Activity in the assay on Mus musculus [2] of 7.8 mg/kg.
For `CNC(=O)CNC(=O)[C@H](CC(C)C)NC(=O)[C@@H]1CCC(=O)N1` ([pGlu]-Leu-Gly-NHMe), in the assay on Mus musculus [1], the inhibition result was “inactive”.
Take `CCCNC(=O)CNC(=O)[C@H](CC(C)C)NC(=O)[C@@H]1CCC(=O)N1` ([pGlu]-Leu-Gly-NHPr): the Activity in the assay with Mus musculus [2] amounted to 10 mg/kg.
With `CC(C)C[C@H](NC(=O)[C@@H]1CCC(=O)N1)C(=O)NCC(=O)NC(C)C` ([pGlu]-Leu-Gly-NHiPr), the Activity with Mus musculus [2] is 2.9 mg/kg.
Regarding `CC(C)C[C@H](NC(=O)[C@@H]1CCC(=O)N1)C(=O)NCC(=O)NC(C)(C)C` ([pGlu]-Leu-Gly-NHtBu), the inhibition entry with Mus musculus [1] was “inactive”.
For `CC(C)C[C@H](NC(=O)[C@@H]1CCC(=O)N1)C(=O)NCC(=O)N(C)C` ([pGlu]-Leu-Gly-NMe2), the Activity in the assay on Mus musculus [2] is 1.3 mg/kg.

Values taken from ChEMBL document CHEMBL3244209, “Tripeptide analogues of melanocyte-stimulating hormone release-inhibiting hormone (Pro-Leu-Gly-NH2) as inhibitors of oxotremorine-induced tremor” (1979).
